Reference: patent publication US9556165B2 (priority 2012, dated 2017)
Values after ≈ are worked out from the molar mass of the structure shown. Read-outs that look alike come from different tables or passages of the source.

Assays:
Type in all cases: cell-based
E. coli ATCC25922 = test: MIC determination, broth microdilution (CLSI); details: Escherichia coli, ATCC25922, strain 1
K. pneumoniae 60 = test: MIC determination, broth microdilution (CLSI); details: Klebsiella pneumoniae, 60, strain 2
E. cloacae 34654 = test: MIC determination, broth microdilution (CLSI); details: Enterobacter cloacae, 34654, strain 3
C. freundii K21/3034 = test: MIC determination, broth microdilution (CLSI); details: Citrobacter freundii, K21/3034, strain 4
M. morganii 126/3048 = test: MIC determination, broth microdilution (CLSI); details: Morganella morganii, 126/3048, strain 5
P. aeruginosa PAO1 = test: MIC determination, broth microdilution (CLSI); details: Pseudomonas aeruginosa, PAO1, strain 6
[1] = system: P. aeruginosa 2297 (AmpC wt); test: MIC determination, broth microdilution (CLSI); details: Pseudomonas aeruginosa, strain 7
[2] = system: P. aeruginosa 2297-con (AmpC derepressed); test: MIC determination, broth microdilution (CLSI); details: Pseudomonas aeruginosa, read-out: strain 8 MIC, strain 8
A. baumannii ATCC15308 = test: MIC determination, broth microdilution (CLSI); details: Acinetobacter baumannii, ATCC15308, strain 9
S. aureus 133 = test: MIC determination, broth microdilution (CLSI)
H. influenzae ATCC 49247 = test: MIC determination, broth microdilution (CLSI); details: Haemophilus influenzae, ATCC49247, strain 12; broth microdilution; read-out: MIC strain 12 (H. influenzae ATCC 49247)
S. pneumoniae 113 = test: MIC determination, broth microdilution (CLSI); details: Streptococcus pneumoniae, 113, strain 13; broth microdilution; read-out: MIC strain 13 (S. pneumoniae 113)
B. fragilis 6688 = test: MIC determination, broth microdilution (CLSI); details: Bacteroides fragilis, 6688, strain 15; broth microdilution; read-out: MIC strain 15 (B. fragilis 6688)
E. coli J62 = test: MIC determination, broth microdilution (CLSI); details: Escherichia coli, J62, strain 17; broth microdilution; read-out: MIC strain 17 (E. coli J62)
E. coli J62-TEM-3 = test: MIC determination, broth microdilution (CLSI); details: Escherichia coli, J62TEM3, read-out: MIC strain 18 (E. coli J62-TEM-3), strain 18; broth microdilution
Bacteria = test: MIC determination in combination with β-lactamase inhibitors (constant 4 μg/mL)
S. maltophilia ICB7569 = test: MIC determination, broth microdilution (CLSI); details: Stenotrophomonas maltophilia, ICB7569, strain 10
[3] = Staphylococcus aureus, 133, strain 11, read-out: strain 11 MIC
[4] = Staphylococcus aureus, 133, strain 14, broth microdilution, read-out: MIC strain 14 (S. aureus 133)

| SMILES | MIC (E. coli ATCC25922) [µg/mL] | MIC (K. pneumoniae 60) [µg/mL] | MIC (E. cloacae 34654) [µg/mL] | MIC (C. freundii K21/3034) [µg/mL] | MIC (M. morganii 126/3048) [µg/mL] | MIC (P. aeruginosa PAO1) [µg/mL] | MIC [1] [µg/mL] | MIC [2] [µg/mL] | MIC (A. baumannii ATCC15308) [µg/mL] | MIC (S. aureus 133; [3]) [µg/mL] | MIC (S. aureus 133; [4]) [µg/mL] | MIC (H. influenzae ATCC 49247) [µg/mL] | MIC (S. pneumoniae 113) [µg/mL] | MIC (B. fragilis 6688) [µg/mL] | MIC (E. coli J62) [µg/mL] | MIC (E. coli J62-TEM-3) [µg/mL] | MIC strain 19 (E. coli J62-TEM-3 + 4 μg/mL clavulanic acid) (Bacteria) [µg/mL] | MIC strain 20 (E. coli J62-TEM-3 + 4 μg/mL sulbactam) (Bacteria) [µg/mL] | MIC strain 21 (E. coli J62-TEM-3 + 4 μg/mL tazobactam) (Bacteria) [µg/mL] | MIC (S. maltophilia ICB7569) [µg/mL] |
| --- | --- | --- | --- | --- | --- | --- | --- | --- | --- | --- | --- | --- | --- | --- | --- | --- | --- | --- | --- | --- |
| CNC(=N)c1ccc(OCCO/N=C(\C(=O)N[C@@H]2C(=O)N(S(=O)(=O)O)[C@H]2C)c2csc(N)n2)cc1 [Example 68, (2S,3S)-3-{[(2Z)-2-(2-Amino-1,3-thiazol-4-yl)-2-({2-[4-(N-methylcarbamimidoyl)-phenoxy]ethoxy}imino)acetyl]amino}-2-methyl-4-oxoazetidine-1-sulfonic acid] | 0.125 (≈ 0.238 µM) | 0.25 (≈ 0.476 µM) | 0.125 (≈ 0.238 µM) | 0.125 (≈ 0.238 µM) | 0.125 (≈ 0.238 µM) | 2 (≈ 3.81 µM) | 8 (≈ 15.2 µM) | 32 (≈ 60.9 µM) | 2 (≈ 3.81 µM) | ≤ 0.063 | 2 (≈ 3.81 µM) | 0.125 (≈ 0.238 µM) | 0.5 (≈ 0.951 µM) | 8 (≈ 15.2 µM) | 0.25 (≈ 0.476 µM) | 16 (≈ 30.4 µM) | 0.125 | 0.25 | 0.25 | – |
| C[C@H]1[C@H](NC(=O)/C(=N\OCCOc2ccc(C(=N)N)cc2COC=O)c2csc(N)n2)C(=O)N1S(=O)(=O)O [Example 60, (2S,3S)-3-({(2Z)-2-(2-Amino-1,3-thiazol-4-yl)-2-[(2-{4-carbamimidoyl-2-[(formyloxy)-methyl]phenoxy}ethoxy)imino]acetyl}amino)-2-methyl-4-oxoazetidine-1-sulfonic acid] | 1 (≈ 1.76 µM) | 1 (≈ 1.76 µM) | 2 (≈ 3.51 µM) | 1 (≈ 1.76 µM) | 0.5 (≈ 0.878 µM) | 16 (≈ 28.1 µM) | 16 (≈ 28.1 µM) | 32 (≈ 56.2 µM) | 4 (≈ 7.02 µM) | 0.25 (≈ 0.439 µM) | 16 (≈ 28.1 µM) | 1 (≈ 1.76 µM) | 1 (≈ 1.76 µM) | 16 (≈ 28.1 µM) | 2 (≈ 3.51 µM) | 32 (≈ 56.2 µM) | 2 | 2 | 2 | – |
| C[C@H]1[C@H](NC(=O)/C(=N\OCCOc2ccc(C(=N)N)cc2CO)c2csc(N)n2)C(=O)N1S(=O)(=O)O [Example 59, (2S,3S)-3-{[(2Z)-2-(2-Amino-1,3-thiazol-4-yl)-2-({2-[4-carbamimidoyl-2-(hydroxymethyl)phenoxy]ethoxy}imino)acetyl]amino}-2-methyl-4-oxoazetidine-1-sulfonic acid] | 1 (≈ 1.85 µM) | 1 (≈ 1.85 µM) | 1 (≈ 1.85 µM) | 0.5 (≈ 0.923 µM) | 1 (≈ 1.85 µM) | 16 (≈ 29.5 µM) | 16 (≈ 29.5 µM) | 32 (≈ 59.1 µM) | 1 (≈ 1.85 µM) | 0.25 (≈ 0.462 µM) | 32 (≈ 59.1 µM) | 1 (≈ 1.85 µM) | 0.5 (≈ 0.923 µM) | 16 (≈ 29.5 µM) | 2 (≈ 3.69 µM) | 32 (≈ 59.1 µM) | 2 | 2 | 2 | – |
| C[C@H]1[C@H](NC(=O)/C(=N\OCCOc2ccc(C(=N)NNC=O)cc2)c2csc(N)n2)C(=O)N1S(=O)(=O)O [Example 63, (2S,3S)-3-({(2Z)-2-(2-Amino-1,3-thiazol-4-yl)-2-[(2-{4-[(2-formylhydrazinyl)(imino)methyl]phenoxy}ethoxy)imino]acetyl}amino)-2-methyl-4-oxoazetidine-1-sulfonic acid] | 0.5 (≈ 0.902 µM) | 0.25 (≈ 0.451 µM) | 0.5 (≈ 0.902 µM) | 0.25 (≈ 0.451 µM) | 0.5 (≈ 0.902 µM) | 8 (≈ 14.4 µM) | 8 (≈ 14.4 µM) | – | 16 (≈ 28.9 µM) | 0.5 (≈ 0.902 µM) | 16 (≈ 28.9 µM) | 0.125 (≈ 0.225 µM) | 0.5 (≈ 0.902 µM) | 16 (≈ 28.9 µM) | 0.5 (≈ 0.902 µM) | 8 (≈ 14.4 µM) | 0.25 | 0.5 | 0.5 | 16 (≈ 28.9 µM) |
| C[C@H]1[C@H](NC(=O)/C(=N\OCCOc2ccc(CC(=N)N)cc2)c2csc(N)n2)C(=O)N1S(=O)(=O)O [Example 62, (2S,3S)-3-{[(2Z)-2-({2-[4-(2-Amino-2-iminoethyl)phenoxy]ethoxy}imino)-2-(2-amino-1,3-thiazol-4-yl)acetyl]amino}-2-methyl-4-oxoazetidine-1-sulfonic acid] | 1 (≈ 1.9 µM) | 0.5 (≈ 0.951 µM) | 1 (≈ 1.9 µM) | 0.5 (≈ 0.951 µM) | 0.125 (≈ 0.238 µM) | 4 (≈ 7.61 µM) | 8 (≈ 15.2 µM) | 32 (≈ 60.9 µM) | 2 (≈ 3.81 µM) | 0.125 (≈ 0.238 µM) | 8 (≈ 15.2 µM) | 0.25 (≈ 0.476 µM) | 1 (≈ 1.9 µM) | 16 (≈ 30.4 µM) | 1 (≈ 1.9 µM) | 16 (≈ 30.4 µM) | 1 | 1 | 1 | – |
| C[C@H]1[C@H](NC(=O)/C(=N\OCCOc2ccc(C(=N)NN)cc2)c2csc(N)n2)C(=O)N1S(=O)(=O)O [Example 64, (2S,3S)-3-({(2Z)-2-(2-Amino-1,3-thiazol-4-yl)-2-[(2-{4-[hydrazinyl(imino)methyl]phenoxy}ethoxy)imino]acetyl}amino)-2-methyl-4-oxoazetidine-1-sulfonic acid] | 0.5 (≈ 0.95 µM) | 0.25 (≈ 0.475 µM) | 0.5 (≈ 0.95 µM) | 0.5 (≈ 0.95 µM) | 0.5 (≈ 0.95 µM) | 8 (≈ 15.2 µM) | 16 (≈ 30.4 µM) | – | 8 (≈ 15.2 µM) | 16 (≈ 30.4 µM) | 8 (≈ 15.2 µM) | 8 (≈ 15.2 µM) | 32 (≈ 60.8 µM) | – | 1 (≈ 1.9 µM) | 32 (≈ 60.8 µM) | 1 | 1 | 2 | 32 (≈ 60.8 µM) |
